Laboratory results as given in ChEMBL document CHEMBL3132769, “Fragment growing to retain or alter the selectivity of anchored kinase hinge-binding fragments” (Medchemcomm, 2014).

Assays:
[1] = molecular target: T1, Cytoplasmic tyrosine-protein kinase BMX (Homo sapiens) (UniProt P51813); assay: Inhibition of human full length BMX expressed in baculovirus assessed as substrate phosphorylation using fluorescence-labelled peptides as substrate at 95 uM after 90 mins by microfluidic peptide phosphorylation assay
T1 sequence (whole entry): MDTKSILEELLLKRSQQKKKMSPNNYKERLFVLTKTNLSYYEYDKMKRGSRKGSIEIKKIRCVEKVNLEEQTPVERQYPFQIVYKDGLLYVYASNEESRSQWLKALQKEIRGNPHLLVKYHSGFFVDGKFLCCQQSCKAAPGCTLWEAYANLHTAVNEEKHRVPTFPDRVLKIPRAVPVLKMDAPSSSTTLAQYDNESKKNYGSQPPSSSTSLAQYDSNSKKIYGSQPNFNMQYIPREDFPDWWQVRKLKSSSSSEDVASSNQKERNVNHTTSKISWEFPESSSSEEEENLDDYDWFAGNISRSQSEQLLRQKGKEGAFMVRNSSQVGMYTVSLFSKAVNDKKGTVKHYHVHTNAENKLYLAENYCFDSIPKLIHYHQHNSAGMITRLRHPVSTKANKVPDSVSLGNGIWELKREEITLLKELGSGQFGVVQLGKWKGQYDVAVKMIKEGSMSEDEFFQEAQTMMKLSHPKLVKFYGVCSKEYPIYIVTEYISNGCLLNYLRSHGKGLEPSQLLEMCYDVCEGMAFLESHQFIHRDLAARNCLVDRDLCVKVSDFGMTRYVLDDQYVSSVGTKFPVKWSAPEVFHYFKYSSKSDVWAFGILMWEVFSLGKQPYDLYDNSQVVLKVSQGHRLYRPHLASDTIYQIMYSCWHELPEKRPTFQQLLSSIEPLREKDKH

[2] = molecular target: Protein kinase C beta type (Homo sapiens) (UniProt P05771); assay: Inhibition of human truncated PKC beta1 expressed in baculovirus assessed as substrate phosphorylation using fluorescence-labelled peptides as substrate at 0.2 uM after 90 mins by microfluidic peptide phosphorylation assay
[3] = molecular target: Protein kinase C eta type (Homo sapiens) (UniProt P24723); assay: Inhibition of human truncated PKC eta expressed in baculovirus assessed as substrate phosphorylation using fluorescence-labelled peptides as substrate at 0.2 uM after 90 mins by microfluidic peptide phosphorylation assay
[4] = tested on: Tyrosine-protein kinase ABL1 (Homo sapiens), P00519 [T315I]; assay: Inhibition of human truncated ABL T315I mutant expressed in baculovirus assessed as substrate phosphorylation using fluorescence-labelled peptides as substrate at 8 uM after 90 mins by microfluidic peptide phosphorylation assay
[5] = molecular target: Protein kinase C beta type (Homo sapiens) (UniProt P05771); assay: Inhibition of human truncated PKC beta1 expressed in baculovirus assessed as substrate phosphorylation using fluorescence-labelled peptides as substrate at 8 uM after 90 mins by microfluidic peptide phosphorylation assay
[6] = molecular target: Mitogen-activated protein kinase 1 (Homo sapiens) (UniProt P28482); assay: Inhibition of human full length ERK2 expressed in Escherichia coli cell assessed as substrate phosphorylation using fluorescence-labelled peptides as substrate at 2 uM after 90 mins by microfluidic peptide phosphorylation assay
[7] = molecular target: T2, Serine/threonine-protein kinase BRSK2 (Homo sapiens) (UniProt Q8IWQ3); assay: Inhibition of human truncated BRSK2 expressed in baculovirus assessed as substrate phosphorylation using fluorescence-labelled peptides as substrate at 420 uM after 90 mins by microfluidic peptide phosphorylation assay
T2 sequence (whole entry): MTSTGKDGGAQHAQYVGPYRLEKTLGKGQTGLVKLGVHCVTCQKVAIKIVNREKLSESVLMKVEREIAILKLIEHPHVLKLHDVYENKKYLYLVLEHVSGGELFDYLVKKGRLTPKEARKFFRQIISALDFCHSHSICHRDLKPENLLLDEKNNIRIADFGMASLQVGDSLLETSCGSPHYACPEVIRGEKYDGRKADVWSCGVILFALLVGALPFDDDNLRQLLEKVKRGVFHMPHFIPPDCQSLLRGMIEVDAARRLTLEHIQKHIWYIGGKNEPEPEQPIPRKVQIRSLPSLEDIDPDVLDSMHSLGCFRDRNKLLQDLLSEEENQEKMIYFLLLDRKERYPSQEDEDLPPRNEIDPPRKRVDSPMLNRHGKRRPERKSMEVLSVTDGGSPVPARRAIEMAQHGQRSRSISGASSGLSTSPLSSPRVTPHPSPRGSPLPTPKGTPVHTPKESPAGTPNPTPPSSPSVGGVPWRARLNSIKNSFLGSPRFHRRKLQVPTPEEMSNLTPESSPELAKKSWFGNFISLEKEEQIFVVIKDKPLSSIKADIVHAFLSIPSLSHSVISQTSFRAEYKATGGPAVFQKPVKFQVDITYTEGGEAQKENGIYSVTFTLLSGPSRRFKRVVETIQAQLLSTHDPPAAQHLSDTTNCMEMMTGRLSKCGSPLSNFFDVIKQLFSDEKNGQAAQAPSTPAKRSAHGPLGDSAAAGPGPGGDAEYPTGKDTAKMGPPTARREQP

[8] = molecular target: Receptor-type tyrosine-protein kinase FLT3 (Homo sapiens) (UniProt P36888); assay: Inhibition of human FLT3 catalytic domain expressed in baculovirus assessed as substrate phosphorylation using fluorescence-labelled peptides as substrate at 70 uM after 90 mins by microfluidic peptide phosphorylation assay
Receptor-type tyrosine-protein kinase FLT3 (Homo sapiens), sequence (P36888 whole entry, the tested form may be a part): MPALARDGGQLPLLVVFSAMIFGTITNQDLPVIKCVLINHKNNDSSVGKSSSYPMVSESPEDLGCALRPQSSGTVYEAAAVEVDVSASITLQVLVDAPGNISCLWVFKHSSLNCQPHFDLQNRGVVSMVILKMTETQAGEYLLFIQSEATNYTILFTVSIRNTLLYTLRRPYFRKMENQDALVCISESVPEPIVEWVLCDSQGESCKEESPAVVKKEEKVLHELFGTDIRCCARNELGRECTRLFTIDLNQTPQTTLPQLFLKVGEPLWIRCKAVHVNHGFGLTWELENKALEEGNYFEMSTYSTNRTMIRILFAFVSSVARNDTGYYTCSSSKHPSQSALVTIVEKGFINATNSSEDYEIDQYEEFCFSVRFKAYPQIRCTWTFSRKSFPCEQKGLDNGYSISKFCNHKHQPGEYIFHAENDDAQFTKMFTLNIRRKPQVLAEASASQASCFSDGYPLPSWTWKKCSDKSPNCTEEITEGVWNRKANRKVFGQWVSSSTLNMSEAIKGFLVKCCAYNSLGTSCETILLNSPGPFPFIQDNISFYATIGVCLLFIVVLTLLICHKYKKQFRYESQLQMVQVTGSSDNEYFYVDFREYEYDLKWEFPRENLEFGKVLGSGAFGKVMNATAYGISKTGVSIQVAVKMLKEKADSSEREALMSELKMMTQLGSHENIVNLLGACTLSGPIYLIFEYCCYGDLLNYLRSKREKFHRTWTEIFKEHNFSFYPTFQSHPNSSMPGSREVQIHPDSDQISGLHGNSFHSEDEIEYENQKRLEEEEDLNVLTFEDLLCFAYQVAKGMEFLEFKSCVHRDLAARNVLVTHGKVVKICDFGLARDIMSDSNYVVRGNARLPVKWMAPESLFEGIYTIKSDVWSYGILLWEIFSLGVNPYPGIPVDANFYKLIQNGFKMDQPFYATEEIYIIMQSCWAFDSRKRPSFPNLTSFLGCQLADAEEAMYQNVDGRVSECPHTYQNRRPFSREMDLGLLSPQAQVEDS

Protein kinase C beta type (Homo sapiens), sequence (P05771 2-671 limits assumed): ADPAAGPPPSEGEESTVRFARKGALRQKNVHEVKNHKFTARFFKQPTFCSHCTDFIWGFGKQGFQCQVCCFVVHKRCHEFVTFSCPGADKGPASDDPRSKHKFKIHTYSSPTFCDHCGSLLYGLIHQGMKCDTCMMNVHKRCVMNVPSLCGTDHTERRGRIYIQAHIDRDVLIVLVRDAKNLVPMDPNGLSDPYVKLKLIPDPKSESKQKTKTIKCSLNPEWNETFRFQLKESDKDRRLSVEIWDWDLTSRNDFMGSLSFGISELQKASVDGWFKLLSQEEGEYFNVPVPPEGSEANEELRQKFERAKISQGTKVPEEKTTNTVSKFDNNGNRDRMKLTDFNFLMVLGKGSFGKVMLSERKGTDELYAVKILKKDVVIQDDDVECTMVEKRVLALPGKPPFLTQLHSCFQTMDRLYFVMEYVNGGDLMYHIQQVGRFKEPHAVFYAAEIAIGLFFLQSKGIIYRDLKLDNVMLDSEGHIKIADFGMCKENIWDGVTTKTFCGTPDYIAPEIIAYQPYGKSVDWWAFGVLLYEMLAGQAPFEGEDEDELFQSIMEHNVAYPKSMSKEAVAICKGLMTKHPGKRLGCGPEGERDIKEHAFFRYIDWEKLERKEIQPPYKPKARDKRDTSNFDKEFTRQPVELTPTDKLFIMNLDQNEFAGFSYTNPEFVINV
Protein kinase C eta type (Homo sapiens), sequence (P24723 whole entry, the tested form may be a part): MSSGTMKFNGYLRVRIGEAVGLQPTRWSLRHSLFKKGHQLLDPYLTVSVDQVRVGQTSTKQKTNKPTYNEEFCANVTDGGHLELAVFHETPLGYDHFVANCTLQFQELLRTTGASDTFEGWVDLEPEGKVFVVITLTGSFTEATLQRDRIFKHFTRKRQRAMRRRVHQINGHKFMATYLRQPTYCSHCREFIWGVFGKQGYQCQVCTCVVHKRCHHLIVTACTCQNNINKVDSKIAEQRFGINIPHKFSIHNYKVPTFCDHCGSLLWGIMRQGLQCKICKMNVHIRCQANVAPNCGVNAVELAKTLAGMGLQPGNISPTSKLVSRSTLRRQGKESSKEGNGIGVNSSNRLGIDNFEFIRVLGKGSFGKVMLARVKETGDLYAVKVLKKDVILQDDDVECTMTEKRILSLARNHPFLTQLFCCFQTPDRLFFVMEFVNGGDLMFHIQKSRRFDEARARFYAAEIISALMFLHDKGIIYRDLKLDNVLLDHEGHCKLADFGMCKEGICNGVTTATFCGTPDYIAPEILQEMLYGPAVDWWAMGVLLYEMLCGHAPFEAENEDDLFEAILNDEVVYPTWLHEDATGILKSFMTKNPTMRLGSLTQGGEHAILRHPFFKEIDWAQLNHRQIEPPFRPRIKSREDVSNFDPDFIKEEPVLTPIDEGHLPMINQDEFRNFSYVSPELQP
Mitogen-activated protein kinase 1 (Homo sapiens), sequence (P28482 whole entry, the tested form may be a part): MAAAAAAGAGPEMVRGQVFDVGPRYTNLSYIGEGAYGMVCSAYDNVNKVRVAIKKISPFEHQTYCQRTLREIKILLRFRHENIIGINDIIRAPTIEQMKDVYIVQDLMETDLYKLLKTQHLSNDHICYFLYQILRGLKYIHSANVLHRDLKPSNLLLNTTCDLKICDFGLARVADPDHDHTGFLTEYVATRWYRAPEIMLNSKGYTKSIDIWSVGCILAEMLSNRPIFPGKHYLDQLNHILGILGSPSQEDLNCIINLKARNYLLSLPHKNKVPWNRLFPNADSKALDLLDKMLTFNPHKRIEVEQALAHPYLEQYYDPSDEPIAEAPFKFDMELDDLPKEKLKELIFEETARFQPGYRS

NCCc1ccc(-c2ncnc3[nH]cnc23)cc1
inhibition [1]: 0%

Clc1ccc(C2(c3ccc(-c4ncnc5[nH]cnc45)cc3)CCNCC2)cc1
inhibition [2]: 53%
inhibition [3]: 36.5%

NCC1CCN(c2ncnc3[nH]ccc23)CC1
inhibition [4]: 53%
inhibition [5]: 50.5%

NC1CCN(c2ncnc3[nH]ccc23)CC1
inhibition [6]: 2.5%

c1nc(N2CCOCC2)c2nc[nH]c2n1
inhibition [7]: 60.5%

CNCc1ccc(-c2ncnc3[nH]cnc23)cc1
inhibition [8]: 36%
